Broadly, the IC50 is the midpoint of a concentration-inhibition curve. Low values mean inhibition by little substance, high ones a need for much substance.

In this assay the target is USP30 (Homo sapiens (Human), UniProt Q70CQ3). As to the kind of experiment: In vitro biochemical assay for USP30 enzyme (Ubiquitin-Rhodamine110 cleavage, fluorescence). Conditions: 20 nM USP30, 15 min pre-incubation, 100 nM Ub rhodamine substrate, 2 hrs at room temperature. How it is done: In vitro biochemical assay for USP30 enzyme
Chain of USP30 (Q70CQ3 whole entry): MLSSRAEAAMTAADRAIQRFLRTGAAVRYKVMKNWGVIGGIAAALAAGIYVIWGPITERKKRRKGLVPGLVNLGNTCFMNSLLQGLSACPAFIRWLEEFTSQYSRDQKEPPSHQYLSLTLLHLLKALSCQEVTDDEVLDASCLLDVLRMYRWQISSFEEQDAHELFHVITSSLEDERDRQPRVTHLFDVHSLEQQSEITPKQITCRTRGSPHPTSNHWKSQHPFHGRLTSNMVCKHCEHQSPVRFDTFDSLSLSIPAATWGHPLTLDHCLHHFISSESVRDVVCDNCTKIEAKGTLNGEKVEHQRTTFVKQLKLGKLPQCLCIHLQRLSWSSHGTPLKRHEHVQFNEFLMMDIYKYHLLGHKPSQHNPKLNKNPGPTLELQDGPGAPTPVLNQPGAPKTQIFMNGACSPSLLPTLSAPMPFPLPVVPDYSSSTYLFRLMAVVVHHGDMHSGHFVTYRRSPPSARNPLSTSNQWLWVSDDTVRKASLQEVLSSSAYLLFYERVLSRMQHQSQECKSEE
The in vitro assay for USP30 evaluates the ability of a test compound to inhibit the activity of the enzyme to cleave ubiquitin from a substrate. Ubiquitin-rhodamine 110 is a quenched, fluorescent substrate for USP30. Cleavage of the amide bond between the C-terminal glycine of ubiquitin and rhodamine results in an increase in rhodamine fluorescence at 535 nm (Exc. 485 nm).
Incubation of the substrate in the presence or absence of USP30 was compared to confirm the deubiquitylating activity of USP30. The USP30 enzyme assay was performed by pre-incubating 20 nM of USP30 with varying concentration of a test compound in the assay buffer [PBS (pH 7.4), 1 mM DTT, 0.01% Tween 20, 0.01% BSA, DMSO final concentration is 1%] for 15 mins at room temperature, following which 100 nM of substrate Ub rhodamine was added and incubated at room temperature for 2 hrs and the plate was read for fluorescence intensity at Ex. 485 nm/535 nm in VICTOR X5 plate reader. The percent inhibition of activity of the enzyme is calculated by comparing counts in the presence and absence of compounds.
Test compounds were screened at various concentrations (10-12 tested concentrations) and dose response curves were generated was generated using GraphPad Prism software Version 7 (San Diego, Calif., USA) with non-linear regression curve fit for sigmoidal dose response (variable slope).
`COc1ccc(C[C@H](NC(=O)c2cocn2)C(=O)Nc2ccc(S(=O)(=O)NC(C)(C)C)cc2)cc1` [Compound 19z, (S)-N-(1-((4-(N-(tert-butyl)sulfamoyl)phenyl)amino)-3-(4-methoxyphenyl)-1-oxopropan-2-yl)oxazole-4-carboxamide] yielded a concentration for half-maximal inhibition (IC50) greater than 10000 nM.

In turn, `CC(C)(C)NS(=O)(=O)c1ccc(NC(=O)[C@H](Cc2ccccc2)NC(=O)c2ccccn2)cc1` [Compound 10h, (S)-N-(1-((4-(N-(tert-butyl)sulfamoyl)phenyl)amino)-1-oxo-3-phenylpropan-2-yl)picolinamide] had an IC50 of 250 nM.

In the case of `CC(C)(C)NS(=O)(=O)c1cccc2c(NC(=O)[C@H](Cc3ccccc3)NC(=O)C3CCCC3)cccc12` [Compound 4l, (S)-N-(1-((5-(N-(tert-butyl)sulfamoyl)naphthalen-1-yl)amino)-1-oxo-3-phenylpropan-2-yl)cyclopentanecarboxamide], the concentration for half-maximal inhibition (IC50) is 366 nM.

Turning to `CC(C)C[C@H](NC(=O)c1ccccc1)C(=O)Nc1cccc2c(S(=O)(=O)NC(C)(C)C)cccc12` [Compound 7a, (S)-N-(1-((5-(N-(tert-butyl)sulfamoyl)naphthalen-1-yl)amino)-4-methyl-1-oxopentan-2-yl)benzamide], the midpoint of inhibition, the IC50, lay at 4300 nM. Against the preceding compound, the IC50 is about 12-fold higher.

`CC(C)(C)NS(=O)(=O)c1cccc2c(NC(=O)[C@H](Cc3ccccc3)NC(=O)C3CCCO3)cccc12` (stereo partly drawn) [Compound 4u, N-((S)-1-((5-(N-(tert-butyl)sulfamoyl)naphthalen-1-yl)amino)-1-oxo-3-phenylpropan-2-yl)tetrahydrofuran-2-carboxamide] had an IC50 greater than 10000 nM.

The compound `CC(C)(C)NS(=O)(=O)c1cccc2c(NC(=O)[C@H](Cc3ccccc3)NC(=O)c3ccco3)cccc12` [Compound 4z, (S)-N-(1-((5-(N-(tert-butyl)sulfamoyl)naphthalen-1-yl)amino)-1-oxo-3-phenylpropan-2-yl)furan-2-carboxamide] gave an IC50 greater than 10000 nM.

`CC(C)(C)NS(=O)(=O)c1ccc(NC(=O)[C@H](Cc2ccccn2)NC(=O)c2ccc(F)cc2)cc1` [Compound 19o, (S)-N-(1-((4-(N-(tert-butyl)sulfamoyl)phenyl)amino)-1-oxo-3-(pyridin-2-yl)propan-2-yl)-4-fluorobenzamide] gave a half-inhibitory concentration (IC50) of 48 nM.

In the case of `CC(C)(C)NS(=O)(=O)c1ccc(NC(=O)[C@H](Cc2cccs2)NC(=O)c2ccc(F)cc2)cc1` [Compound 19g, (S)-N-(1-((4-(N-(tert-butyl)sulfamoyl)phenyl)amino)-1-oxo-3-(thiophen-2-yl)propan-2-yl)-4-fluorobenzamide], the half-maximal inhibitory concentration (IC50) worked out at 19 nM.

`CC(C)(C)NS(=O)(=O)c1ccc(NC(=O)[C@H](CC2CCCCC2)NC(=O)c2ccccn2)cc1` [Compound 14j, (S)-N-(1-((4-(N-(tert-butyl)sulfamoyl)phenyl)amino)-3-cyclohexyl-1-oxopropan-2-yl)picolinamide] displayed a half-inhibitory concentration (IC50) of 123 nM.

In turn, `CC(C)(C)NS(=O)(=O)c1ccc(NC(=O)[C@H](Cc2ccncc2)NC(=O)c2ccc(F)cc2)cc1` [Compound 19y, (S)-N-(1-((4-(N-(tert-butyl)sulfamoyl)phenyl)amino)-1-oxo-3-(pyridin-4-yl)propan-2-yl)-4-fluorobenzamide] gave a concentration for half-maximal inhibition (IC50) of 20 nM.

As to `CC(C)(C)NS(=O)(=O)c1cccc2c(NC(=O)[C@H](Cc3ccccc3)NC(=O)Cc3ccccc3)cccc12` [Compound 4e, (S)-N-(5-(N-(tert-butyl)sulfamoyl)naphthalen-1-yl)-3-phenyl-2-(2-phenylacetamido)propanamide], the 50% inhibitory concentration (IC50) was greater than 10000 nM.

Compound `COc1ccc(C[C@H](NC(=O)c2ccccn2)C(=O)Nc2ccc(S(=O)(=O)NC(C)(C)C)cc2)cc1` [Compound 19u, (S)-N-(1-((4-(N-(tert-butyl)sulfamoyl)phenyl)amino)-3-(4-methoxyphenyl)-1-oxopropan-2-yl)picolinamide] returned a concentration for half-maximal inhibition (IC50) of 195 nM. This counts as sub-micromolar.

Take `COc1ccc(C[C@H](NC(=O)c2ccccc2)C(=O)Nc2cccc3c(S(=O)(=O)NC(C)(C)C)cccc23)cc1` [Compound 7f, (S)-N-(1-((5-(N-(tert-butyl)sulfamoyl)naphthalen-1-yl)amino)-3-(4-methoxyphenyl)-1-oxopropan-2-yl)benzamide]: inhibition was half-maximal at 89 nM (IC50).

Compound `COc1ccc(C[C@H](NC(=O)c2cscn2)C(=O)Nc2ccc(S(=O)(=O)NC(C)(C)C)cc2)cc1` [Compound 19x, (S)-N-(1-((4-(N-(tert-butyl)sulfamoyl)phenyl)amino)-3-(4-methoxyphenyl)-1-oxopropan-2-yl)thiazole-4-carboxamide] came in with an IC50 greater than 10000 nM.

In turn, `CC(C)(C)NS(=O)(=O)c1ccc(NC(=O)[C@H](Cc2cccnc2)NC(=O)c2ccc(F)cc2)cc1` [Compound 19n, (S)-N-(1-((4-(N-(tert-butyl)sulfamoyl)phenyl)amino)-1-oxo-3-(pyridin-3-yl)propan-2-yl)-4-fluorobenzamide] showed an IC50 of 16 nM. In other words, the double-digit nanomolar range.

The compound `CC(C)(C)NS(=O)(=O)c1ccc(NC(=O)[C@H](Cc2cccs2)NC(=O)C2CCCCC2)cc1` [Compound 19a, (S)-N-(1-((4-(N-(tert-butyl)sulfamoyl)phenyl)amino)-1-oxo-3-(thiophen-2-yl)propan-2-yl)cyclohexanecarboxamide] came in with an IC50 of 28 nM.

As for `CC(C)(C)NS(=O)(=O)c1ccc(NC(=O)[C@H](Cc2ccccc2)NC(=O)c2ccc(F)cc2)cc1` [Compound 10e], the IC50 worked out at 17 nM.

Turning to `CC(C)(C)NS(=O)(=O)c1cccc2c(NC(=O)[C@H](CC3CC3)NC(=O)c3ccccc3)cccc12` [Compound 7h, (S)-N-(1-((5-(N-(tert-butyl)sulfamoyl)naphthalen-1-yl)amino)-3-cyclopropyl-1-oxopropan-2-yl)benzamide], the half-inhibitory concentration (IC50) was 2200 nM.

On to `CC(C)(C)NS(=O)(=O)c1ccc(NC(=O)[C@H](CC2CCCCC2)NC(=O)C2CCCCC2)cc1` [Compound 14b, (S)-N-(1-((4-(N-(tert-butyl)sulfamoyl)phenyl)amino)-3-cyclohexyl-1-oxopropan-2-yl)cyclohexanecarboxamide], for which the 50% inhibitory concentration (IC50) was 83 nM. Against the preceding compound, the IC50 is about 27-fold lower.

As for `CC(C)(C)NS(=O)(=O)c1cccc2c(NC(=O)[C@H](Cc3ccccc3)NC(=O)C34CC5CC(CC(C5)C3)C4)cccc12` [Compound 4s], the 50% inhibitory concentration (IC50) was greater than 10000 nM.

`CC(C)(C)NS(=O)(=O)c1ccc(NC(=O)[C@H](CC2CCCCC2)NC(=O)c2ccccc2)cc1` [Compound 14a, (S)-N-(1-((4-(N-(tert-butyl)sulfamoyl)phenyl)amino)-3-cyclohexyl-1-oxopropan-2-yl)benzamide] had a 50% inhibitory concentration (IC50) of 225 nM.

In turn, `CC(C)(C)NS(=O)(=O)c1cccc2c(NC(=O)[C@H](CC3CCCCC3)NC(=O)c3ccccc3)cccc12` [Compound 7c, (S)-N-(1-((5-(N-(tert-butyl)sulfamoyl)naphthalen-1-yl)amino)-3-cyclohexyl-1-oxopropan-2-yl)benzamide] came in with an IC50 of 666 nM.

In the case of `CC(C)(C)NS(=O)(=O)c1cccc2c(NC(=O)[C@H](Cc3ccc(C#N)cc3)NC(=O)c3ccccc3)cccc12` [Compound 7j, (S)-N-(1-((5-(N-(tert-butyl)sulfamoyl)naphthalen-1-yl)amino)-3-(4-cyanophenyl)-1-oxopropan-2-yl)benzamide], the half-maximal inhibitory concentration (IC50) stood at 273 nM.

In turn, `CC(C)(C)NS(=O)(=O)c1cccc2c(NC(=O)[C@H](Cc3ccc(F)cc3)NC(=O)c3ccccc3)cccc12` [Compound 7e, (S)-N-(1-((5-(N-(tert-butyl)sulfamoyl)naphthalen-1-yl)amino)-3-(4-fluorophenyl)-1-oxopropan-2-yl)benzamide] displayed a 50% inhibitory concentration (IC50) of 153 nM.

`CC(C)(C)NS(=O)(=O)c1cccc2c(NC(=O)[C@H](Cc3ccccc3)NC(=O)c3cccs3)cccc12` [Compound 4h, (S)-N-(1-((5-(N-(tert-butyl)sulfamoyl)naphthalen-1-yl)amino)-1-oxo-3-phenylpropan-2-yl)thiophene-2-carboxamide] registered an IC50 of 1800 nM.

Take `CC(C)(C)NS(=O)(=O)c1cccc2c(NC(=O)[C@H](Cc3ccccc3)NC(=O)c3nccs3)cccc12` [Compound 4q, (S)-N-(1-((5-(N-(tert-butyl)sulfamoyl)naphthalen-1-yl)amino)-1-oxo-3-phenylpropan-2-yl)thiazole-2-carboxamide]: the IC50 worked out at 180 nM.

On to `Cc1cccc(C(=O)N[C@@H](Cc2ccccc2)C(=O)Nc2cccc3c(S(=O)(=O)NC(C)(C)C)cccc23)n1` [Compound 4m, (S)-N-(1-((5-(N-(tert-butyl)sulfamoyl)naphthalen-1-yl)amino)-1-oxo-3-phenylpropan-2-yl)-6-methylpicolinamide], for which the IC50 was greater than 10000 nM.

`CC(C)(C)NS(=O)(=O)c1ccc(NC(=O)[C@H](Cc2cccc(Cl)c2)NC(=O)C2CCCCC2)cc1` [Compound 19e, (S)-N-(1-((4-(N-(tert-butyl)sulfamoyl)phenyl)amino)-3-(3-chlorophenyl)-1-oxopropan-2-yl)cyclohexanecarboxamide]: the IC50 was greater than 10000 nM.

Turning to `CC(C)(C)NS(=O)(=O)c1ccc(NC(=O)[C@H](CC2CCCCC2)NC(=O)c2ccc(F)c(F)c2)cc1` [Compound 14h, (S)-N-(1-((4-(N-(tert-butyl)sulfamoyl)phenyl)amino)-3-cyclohexyl-1-oxopropan-2-yl)-3,4-difluorobenzamide], the midpoint of inhibition, the IC50, lay at 31 nM. This counts as double-digit nanomolar.
